Results from patent publication US10988444B2, “Antimicrobial compounds” (NEWSOUTH INNOVATIONS PTY LIMITED, priority 2016, dated 2021).
Values after ≈ are worked out from the molar mass of the structure shown.

Assays:
[1] = test system: S. aureus; assay: Minimal inhibitory concentration (MIC) determination, Example 1; assay type: cell-based; conditions: MHB, 37° C., 24 h; for MIC: Staphylococcus aureus, read-out: Minimum inhibitory concentration (MIC) S. aureus
Experimental: (§1) The antibacterial activity of the compounds was determined by the determination of minimal inhibitory concentration (MIC) by following the previously published protocol (see Nizalapur, S.; Ho, K. K.; Kimyon, Ö.; Yee, E.; Berry, T.; Manefield, M.; Cranfield, C. G.; Willcox, M.; Black, D. S.; Kumar, N. Org. Biomol. Chem. 2016, 14, 3623). The compounds to be tested were dissolved and diluted in autoclaved Millipore water. A single colony of bacteria was cultured overnight in TSB at 37° C. The resulting bacteria were collected by centrifugation and re-suspended in the same volume of MHB twice. Optical density (OD) of the resulting culture was adjusted to 0.1 at 600 nm (10^8 CFU/mL) in MHB, and the adjusted culture was further diluted to […] in MHB. Then, 100 μL of the bacterial solution was added to wells of a 96-well plate containing 100 μL of serially diluted compound. Two controls were also prepared: one containing 100 μL of MHB media and 100 μL sterile water, and the other containing 100 μL of bacterial solution and 100 μL sterile water. […] The MIC value was determined as the lowest concentration of compound that inhibited the complete growth of the bacteria (i.e. OD similar to that of the control having no bacteria). Each experiment was performed in triplicate and was repeated in three independent experiments.
(§2) The results of the MIC assay are given below in Table 1.

[2] = test system: E. coli; assay: as above; assay type: cell-based; conditions: 24 h, MHB, 37° C.; for MIC: Escherichia coli, read-out: Minimum inhibitory concentration (MIC) E. coli
Experimental: as §1, §2

[3] = test system: E. coli; assay: Biofilm disruption assay, established biofilms, crystal violet staining; assay type: cell-based; conditions: 250 μM, 24 h treatment
Experimental: (§3) Bacterial cultures were grown in TSB media for overnight at 37° C. with shaking at 150 r.p.m. Cultures were diluted (1:20) in YPD medium and 200 μl aliquots were dispensed to flat bottom 96-well plate wells (Sarstedt Australia). Cultures were supplemented with varying concentrations of synthetic compounds dissolved in water. For pre-established biofilm assay, cultures were grown in 96-well plate wells overnight prior to supplementation with synthetic compounds. Control cultures were supplemented with an equal amount of DMSO. Plates were sealed with self-adhesive microplate sealers (TopSeal-A, PerkinElmer) to allow air diffusion and to prevent condensation. Cultures were incubated overnight at 37° C. with shaking at 150 r.p.m. Biofilms adhered on polystyrene substratum were quantified by crystal violet staining as described previously (see Wiegand, I.; Hilpert, K.; Hancock, R. E. W. Nat. Protocols 2008, 3 (2), 163-175). All cultures were prepared in triplicates. Error bars represent the standard error of three independent experiments (n=3).
(§4) The biofilm disruption activities of the compounds were investigated using crystal violet staining according to a previously published protocol (G. A. O'Toole, J Vis Exp, 2011, (47), pii: 2437, DOI: 10.3791/2437, 2437). The ability of compounds (34-38, 51-56, 61, 62, 65 and 66) to disrupt the established biofilms of the Gram-positive bacteria S. aureus and the Gram-negative bacteria Pseudomonas aeruginosa, Serratia marcescens and E. coli, was determined at a concentration of 250 μM. In this assay, bacterial cultures were grown on a polystyrene substratum overnight prior to treatment with the compounds. In addition, the ability of these compounds to inhibit the formation of biofilms of P. aeruginosa and S. marcescens was also investigated at 250 μM, whereby the bacterial cultures were grown in the presence of test compounds.

[4] = test system: S. marcescens; assay: Biofilm inhibition assay (inhibition of biofilm formation), crystal violet staining; assay type: cell-based; conditions: Serratia marcescens, 24 h
Experimental: as §3, with “no-established” for “pre-established”, “along” for “prior to supplementation”, “water.” for “DMSO.”
as §4

[5] = test system: S. marcescens; assay: Biofilm disruption assay, established biofilms, crystal violet staining; assay type: cell-based, Serratia marcescens; conditions: 250 μM, 24 h treatment
Experimental: as §3, §4

[6] = test system: S. aureus; assay: as above; assay type: cell-based; conditions: 250 μM, 24 h treatment
Experimental: as §3, §4

[7] = test system: Pseudomonas aeruginosa (PAO1); assay: as above; assay type: cell-based; conditions: 250 μM, 24 h treatment
Experimental: as §3, §4

[8] = test system: E. coli (K12); assay: Minimal inhibitory concentration (MIC) assay, broth micro dilution, Example 3; assay type: cell-based; conditions: Escherichia coli; K12, MHB, 37° C., 18-24 hours; read-out: Minimum inhibitory concentration (MIC) E. coli
Experimental: (§5) Compounds 95, 96, 106, 107, 109, 117 were assessed by determining their minimum inhibitory concentration (MIC) according through broth micro dilution assay using the procedure described by M. A. Wikler, Methods for dilution antimicrobial susceptibility tests for bacteria that grow aerobically: approved standard, Clinical and Laboratory Standards Institute, 2006. Briefly, bacteria were grown to mid-log phase in Muller Hinton broth (MHB) with shaking at 120 rpm and incubated at 37° C. for 18-24 hours. Following incubation, bacteria were washed three times in PBS pH 7.4 at 3500 g for 10 minutes. After washing, bacteria were diluted with fresh MHB. The turbidity of the bacterial suspensions were adjusted so that OD660 nm was 0.1, which gave 1×10^8 cfu/ml, and then further diluted to achieve 1-2×10^5 cfu/ml as a final bacterial concentration. Each compound was diluted (250-3.9 μM) through two-fold dilution. Wells in microtitre plates were loaded with 100 μl of inoculum containing 1-2×10^5 cfu/ml bacteria. Wells without any compound and containing only bacteria were used as a negative control (i.e. no inhibition of growth). Wells without bacteria but containing compound acted as another control. The microtitre plate was wrapped with paraffin to prevent evaporation and incubated with shaking at 120 rpm and 37° C. for 18-24 hours. After incubation, spectrophotometric reading was taken. The well without any bacterial growth and showing zero spectrophotometric reading regarded as mic of the compounds.

[9] = test system: S. aureus (SA38); assay: as above; assay type: cell-based; conditions: Staphylococcus aureus; SA38, MHB, 37° C., 18-24 hours; read-out: Minimum inhibitory concentration (MIC) S. aureus
Experimental: as §5

| Compound | MIC [1] | MIC [2] | MIC [8] | MIC [9] | other results |
| --- | --- | --- | --- | --- | --- |
| Cl.N=C(N)NCCCNC(=O)C(=O)c1ccccc1NC(=O)c1ccc2ccccc2c1 [Compound 34, N-(2-(2-((3-Guanidinopropyl)amino)-2-oxoacetyl)phenyl)-2-naphthamide hydrochloride] | 23 µg/mL | > 110 µg/mL |  |  |  |
| Cl.N=C(N)NCCCNC(=O)C(=O)c1cc(F)ccc1NC(=O)c1ccc2ccccc2c1 [Compound 37, N-(4-Fluoro-2-(2-((3-guanidinopropyl)amino)-2-oxoacetyl)phenyl)-2-naphthamide hydrochloride] | 30 µg/mL | 59 µg/mL |  |  | disruption of established biofilms of E. coli [3]: 53%; inhibition at 250 µM [4]: 74% |
| Cc1ccc(NC(=O)c2ccc3ccccc3c2)c(C(=O)C(=O)NCCCNC(=N)N)c1.Cl [Compound 38, N-(2-(2-((3-Guanidinopropyl)amino)-2-oxoacetyl)-4-methylphenyl)-2-naphthamide hydrochloride] | 93 µg/mL | > 110 µg/mL |  |  |  |
| Cl.N=C(N)NCCCC[C@H](NC(=O)C(=O)c1ccccc1NC(=O)c1ccc2ccccc2c1)C(=O)O [Compound 51, N^2-(2-(2-(2-naphthamido)phenyl)-2-oxoacetyl)-N^6-carbamimidoyllysine hydrochloride] | 53 µg/mL | 66 µg/mL |  |  | disruption of established biofilms of S. marcescens [5]: 48% |
| Cl.N=C(N)NCCCC[C@H](NC(=O)C(=O)c1cc(Br)ccc1NC(=O)c1ccc2ccccc2c1)C(=O)O [Compound 52, N^2-(2-(2-(2-naphthamido)-5-bromophenyl)-2-oxoacetyl)-N^6-carbamimidoyllysine hydrochloride] | 77 µg/mL | 77 µg/mL |  |  | disruption of established biofilms of S. aureus [6]: 42%; inhibition at 250 µM [4]: 72% |
| Cc1ccc(NC(=O)c2ccc3ccccc3c2)c(C(=O)C(=O)N[C@@H](CCCCNC(=N)N)C(=O)O)c1.Cl [Compound 54, N^2-(2-(2-(2-naphthamido)-5-methylphenyl)-2-oxoacetyl)-N^6-carbamimidoyllysine hydrochloride] | 54 µg/mL | 68 µg/mL |  |  | disruption of established biofilms of P. aeruginosa [7]: 46%; Minimum inhibitory concentration (MIC) E. coli ([2]; hydrochloride): 69 µg/mL |
| CC(=O)C(CCCCNC(=N)N)NC(=O)C(=O)c1ccccc1NC(=O)c1ccc2ccccc2c1.Cl (stereo not drawn) [Compound 55, N-(2-(2-((7-guanidino-2-oxoheptan-3-yl)amino)-2-oxoacetyl)phenyl)-2-naphthamide hydrochloride] | > 140 µg/mL | 17 µg/mL |  |  |  |
| CC(=O)C(CCCCNC(=N)N)NC(=O)C(=O)c1cc(Br)ccc1NC(=O)c1ccc2ccccc2c1.Cl (stereo not drawn) [Compound 56, N-(4-bromo-2-(2-((7-guanidino-2-oxoheptan-3-yl)amino)-2-oxoacetyl)phenyl)-2-naphthamide hydrochloride] | > 140 µg/mL | 19 µg/mL |  |  | inhibition at 250 µM [4]: 61% |
| COC(=O)C(CCCN)NC(=O)C(CCCCN)NC(=O)C(=O)c1ccccc1NC(=O)c1ccc2ccccc2c1.Cl.Cl (stereo not drawn) [Compound 61, Methyl2-(2-(2-(2-(2-naphthamido)phenyl)-2-oxoacetamido)-6-aminohexanamido)-5-aminopentanoate dihydrochloride] | 130 µg/mL | 39 µg/mL |  |  | disruption of established biofilms of S. aureus [6]: 53%; disruption of established biofilms of P. aeruginosa [7]: 55% |
| NCCNC(=O)[C@H](Cc1c[nH]c2ccccc12)NC(=O)c1cc(Br)ccc1NC(=O)c1ccc2ccccc2c1 [Compound 95, (S)—N-(2-((1-((2-Aminoethyl)amino)-3-(1H-indol-3-yl)-1-oxopropan-2-yl)carbamoyl)-4-bromophenyl)-2-naphthamide] |  |  | > 125 µM | 3.9 µM (≈ 2.33 µg/mL) |  |
| NCCNC(=O)[C@H](Cc1c[nH]c2ccccc12)NC(=O)c1cc(F)ccc1NC(=O)c1ccc2ccccc2c1 [Compound 96, (S)—N-(2-((1-((2-Aminoethyl)amino)-3-(1H-indol-3-yl)-1-oxopropan-2-yl)carbamoyl)-4-fluorophenyl)-2-naphthamide] |  |  | 15.6 µM (≈ 8.39 µg/mL) | 7.8 µM (≈ 4.19 µg/mL) |  |
| N=C(N)NCCNC(=O)[C@H](Cc1c[nH]c2ccccc12)NC(=O)c1cc(Br)ccc1NC(=O)c1ccc2ccccc2c1 [Compound 106, (S)—N-(4-Bromo-2-((1-((2-guanidinoethyl)amino)-3-(1H-indol-3-yl)-1-oxopropan-2-yl)carbamoyl)phenyl)-2-naphthamide] |  |  | 15.6 µM (≈ 9.99 µg/mL) | 3.9 µM (≈ 2.5 µg/mL) |  |
| N=C(N)NCCNC(=O)[C@H](Cc1c[nH]c2ccccc12)NC(=O)c1cc(F)ccc1NC(=O)c1ccc2ccccc2c1 [Compound 107, (S)—N-(4-Fluoro-2-((1-((2-guanidinoethyl)amino)-3-(1H-indol-3-yl)-1-oxopropan-2-yl)carbamoyl)phenyl)-2-naphthamide] |  |  | 125 µM (≈ 72.5 µg/mL) | 1.8 µM (≈ 1.04 µg/mL) |  |
| COc1ccc(NC(=O)c2ccc3ccccc3c2)c(C(=O)N[C@@H](Cc2c[nH]c3ccccc23)C(=O)NCCNC(=N)N)c1 [Compound 109, (S)—N-(2-((1-((2-Guanidinoethyl)amino)-3-(1H-indol-3-yl)-1-oxopropan-2-yl)carbamoyl)-4-methoxyphenyl)-2-naphthamide] |  |  | 62.5 µM (≈ 37 µg/mL) | 7.8 µM (≈ 4.62 µg/mL) |  |
| CN(C)CCNC(=O)[C@H](Cc1c[nH]c2ccccc12)NC(=O)c1cc(Br)ccc1NC(=O)c1ccc2ccccc2c1 [Compound 117, (S)-2-(2-(2-(2-Naphthamido)-5-bromobenzamido)-3-(1H-indol-3-yl)propanamido)-N,N-dimethylethan-1-aminium chloride] |  |  | 125 µM | 7.8 µM |  |
| Gentamicin [reference compound] |  |  |  |  | Minimum inhibitory concentration (MIC) S. aureus [1]: <0.6 µg/mL; Minimum inhibitory concentration (MIC) E. coli [2]: 2.5 µg/mL |
